Laboratory results taken from US20230150924A1, “NOVEL COMPOUND HAVING CANCER METASTASIS INHIBITORY ACTIVITY, PREPARATION METHOD THEREFOR, AND PHARMACEUTICAL COMPOSITION FOR INHIBITING CANCER METASTASIS AND INVASION OR TREATING COLORECTAL CANCER, COMPRISING COMPOUND” (CELLGENTEK CO., LTD., priority 2019, published 2023).
Several values for one entry are separate records, joined by “and”; a condition that tells them apart may be missing. Equal entries are not always repeated. Where two headings read alike, the source gives them in different places.

Legend:
KAI1 promoter = KAI1 promoter luciferase reporter assay in transfected Caco2 cells; type: cell-based, human; conditions: Homo sapiens, Caco-2, 16 h, read-out: Relative KAI promoter activity
Experimental: Experiments were conducted to evaluate the metastasis-related promoter activity-increasing effects of the compounds according to the present invention. Specifically, the KAI1 promoter reporter vector was used. In this case, the pRL-TK vector, a vector expressing renilla luciferase, was used as an internal control indicating the transfection efficiency in each transfected well.
First, 24 hours before transfection, 2×10^6 human colon cancer cell line, Caco2) cells were cultured in 10 ml of DMEM containing 10% FBS and 1% penicillin/streptomycin on a 100-mm-diameter plate, and then transformed with 5 μg of a pRL-TK vector mixture containing a transfection reagent and the KAI1 promoter, and then cultured in a 5% CO2 incubator at 37° C. for 48 hours. Thereafter, the adherent cells were detached using trypsin and counted using a hemacytometer, and then 5×10^3 transfected Caco2 cells in 100 μl of DMEM containing 10% FBS and 1% penicillin/streptomycin were seeded into each well of a 96-well plate and cultured in a 5% CO2 incubator at 37° C. for 24 hours. Next, 1 μM of each of the 305 compounds prepared in Examples 1 to 305 was added to each well, and after 16 hours, 100 μl of a lysis buffer for analysis containing a luciferase substrate was added, and the cells were lysed with stirring for 20 minutes. After completion of lysis, the cells were measured for luciferase activity using a luciferase reporter assay system (Promega, USA). […] In addition, data were analyzed at a significance level of p<0.05 by one-way ANOVA (Tukey's HSD), and SPSS 17.0 (Chicago, USA) statistical program was used. In Table 14 to 20, PHA is the PHA-665752, and KIT is KITENIN.

[1] = system: invasion of colorectal cancer cells; assay: In vivo relative invation (invasion; EV and KITENIN controls, no method described); conditions: relative to EV (=1); KIT = KITENIN
[2] = 1 μM compound, 16 hours, transfected Caco2 cells, luciferase activity relative to DMSO control (=1)

`O=C(CNC(=O)c1ccc(Cl)cc1)c1ccccc1` [Example 1, 4-chloro-N-(2-oxo-2-phenylethyl)benzamide] was tested, and the fold induction at 1 µM (KAI1 promoter) was 1.7 and the “In vivo relative invation” value [1] was 0.9672.
In the case of `CC(Oc1ccccc1)C(=O)NCC(=O)c1ccccc1` (stereo not drawn) [Example 2, N-(2-oxo-2-phenylethyl)-2-phenoxypropanamide], the fold induction at 1 µM (KAI1 promoter) is reported as 1.14 and the “In vivo relative invation” value [1] is reported as 0.8651.
With `O=C(CNC(=O)c1ccccc1F)c1ccccc1` [Example 3, 2-fluoro-N-(2-oxo-2-phenylethyl)benzamide] the fold induction at 1 µM (KAI1 promoter) was 2.12 and the “In vivo relative invation” value [1] was 1.
With `O=C(CNC(=O)c1ccc(F)cc1)c1ccccc1` [Example 4, 4-fluoro-N-(2-oxo-2-phenylethyl)benzamide] the fold induction at 1 µM (KAI1 promoter) was 1.88 and the “In vivo relative invation” value [1] was 1.084.
In the case of `O=C(CNC(=O)c1ccco1)c1ccccc1` [Example 5, N-(2-oxo-2-phenylethyl)furan-2-carboxamide], the fold induction at 1 µM (KAI1 promoter) is reported as 1.98 and the “In vivo relative invation” value [1] is reported as 0.812.
For `O=C(CNC(=O)c1ccccc1Cl)c1ccccc1` [Example 6, 2-chloro-N-(2-oxo-2-phenylethyl)benzamide], the fold induction at 1 µM (KAI1 promoter) was 1.91 and the “In vivo relative invation” value [1] was 1.144.
With `O=C(CNC(=O)c1cccc(Cl)c1)c1ccccc1` [Example 7, 3-chloro-N-(2-oxo-2-phenylethyl)benzamide] the fold induction at 1 µM (KAI1 promoter; [2]) was 1.2 and the “In vivo relative invation” value [1] was 1.091.
For `C/C=C/C(=O)NCC(=O)c1ccccc1` [Example 8, (E)-N-(2-oxo-2-phenylethyl)but-2-enamide], the fold induction at 1 µM (KAI1 promoter; [2]) was 1.15 and the “In vivo relative invation” value [1] was 1.077.
In the case of `O=C(CCc1ccccc1)NCC(=O)c1ccccc1` [Example 9, N-(2-oxo-2-phenylethyl)-3-phenylpropanamide], the fold induction at 1 µM (KAI1 promoter; [2]) is reported as 1.14 and the “In vivo relative invation” value [1] is reported as 0.8419.
With `C=CC(=O)NCC(=O)c1ccccc1` [Example 10, N-(2-oxo-2-phenylethyl) acrylamide] the fold induction at 1 µM (KAI1 promoter; [2]) was 1.08 and the “In vivo relative invation” value [1] was 0.9099.
In the case of `Cc1ccccc1C(=O)NCC(=O)c1ccccc1` [Example 11, 2-methyl-N-(2-oxo-2-phenylethyl)benzamide], the fold induction at 1 µM (KAI1 promoter; [2]) is reported as 1.82 and the “In vivo relative invation” value [1] is reported as 1.036.
With `COc1ccc(C(=O)NCC(=O)c2ccccc2)cc1` [Example 12, 4-methoxy-N-(2-oxo-2-phenylethyl)benzamide] the fold induction at 1 µM (KAI1 promoter; [2]) was 1.75 and the “In vivo relative invation” value [1] was 1.357.
`Cc1cccc(C(=O)NCC(=O)c2ccccc2)c1` [Example 13, 3-methyl-N-(2-oxo-2-phenylethyl)benzamide] was tested, and the fold induction at 1 µM (KAI1 promoter; [2]) was 1.73 and the “In vivo relative invation” value [1] was 0.8565.
For `CCC(=O)NCC(=O)c1ccccc1` [Example 14, N-(2-oxo-2-phenylethyl)propionamide], the fold induction at 1 µM (KAI1 promoter; [2]) was 1.02 and the “In vivo relative invation” value [1] was 0.9106.
For `O=C(CNC(=O)C1CCCCC1)c1ccccc1` [Example 15, N-(2-oxo-2-phenylethyl)cyclohexanecarboxamide], the fold induction at 1 µM (KAI1 promoter; [2]) was 1.74 and the “In vivo relative invation” value [1] was 1.17.
In the case of `O=C(CNC(=O)C1CC1)c1ccccc1` [Example 16, N-(2-oxo-2-phenylethyl)cyclopropanecarboxamide], the fold induction at 1 µM (KAI1 promoter; [2]) is reported as 0.92 and the “In vivo relative invation” value [1] is reported as 0.9645.
`O=C(CNC(=O)C1CCC1)c1ccccc1` [Example 17, N-(2-oxo-2-phenylethyl)cyclobutanecarboxamide] was tested, and the fold induction at 1 µM (KAI1 promoter; [2]) was 0.98 and the “In vivo relative invation” value [1] was 0.9288.
`O=C(CNC(=O)c1cccs1)c1ccccc1` [Example 18, N-(2-oxo-2-phenylethyl)thiophene-2-carboxamide] was tested, and the fold induction at 1 µM (KAI1 promoter; [2]) was 2.18 and the “In vivo relative invation” value [1] was 1.1.
For `CC(C)(C)CC(=O)NCC(=O)c1ccccc1` [Example 19, 3,3-dimethyl-N-(2-oxo-2-phenylethyl) butanamide], the fold induction at 1 µM (KAI1 promoter; [2]) was 0.98 and the “In vivo relative invation” value [1] was 1.201.
For `CCCCC(=O)NCC(=O)c1ccccc1` [Example 20, N-(2-oxo-2-phenylethyl)pentanamide], the fold induction at 1 µM (KAI1 promoter; [2]) was 0.99 and the “In vivo relative invation” value [1] was 1.217.
For `O=C(CNS(=O)(=O)c1cccc([N+](=O)[O-])c1)c1ccccc1` [Example 21, 3-nitro-N-(2-oxo-2-phenylethyl)benzenesulfonamide], the fold induction at 1 µM (KAI1 promoter; [2]) was 0.99 and the “In vivo relative invation” value [1] was 1.099.
`O=C(CNC(=O)c1ccc(F)cc1F)c1ccccc1` [Example 22, 2,4-difluoro-N-(2-oxo-2-phenylethyl)benzamide] was tested, and the fold induction at 1 µM (KAI1 promoter; [2]) was 1.56 and the “In vivo relative invation” value [1] was 1.163.
With `COCC(=O)NCC(=O)c1ccccc1` [Example 23, 2-methoxy-N-(2-oxo-2-phenylethyl) acetamide] the fold induction at 1 µM (KAI1 promoter; [2]) was 1 and the “In vivo relative invation” value [1] was 1.104.
In the case of `CC(C)(C)C(=O)NCC(=O)c1ccccc1` [Example 24, N-(2-oxo-2-phenylethyl)pivalamide], the fold induction at 1 µM (KAI1 promoter; [2]) is reported as 0.84 and the “In vivo relative invation” value [1] is reported as 1.128.
For `CS(=O)(=O)NCC(=O)c1ccccc1` [Example 25, N-(2-oxo-2-phenylethyl)methanesulfonamide], the fold induction at 1 µM (KAI1 promoter; [2]) was 1.49 and the “In vivo relative invation” value [1] was 1.215.
In the case of `O=C(CNS(=O)(=O)c1ccc(F)cc1)c1ccccc1` [Example 26, 4-fluoro-N-(2-oxo-2-phenylethyl)benzenesulfonamide], the fold induction at 1 µM (KAI1 promoter; [2]) is reported as 1.26 and the “In vivo relative invation” value [1] is reported as 1.063.
`Cc1ccc(S(=O)(=O)NCC(=O)c2ccccc2)cc1` [Example 27, 4-methyl-N-(2-oxo-2-phenylethyl)benzenesulfonamide] was tested, and the fold induction at 1 µM (KAI1 promoter; [2]) was 1.31 and the “In vivo relative invation” value [1] was 1.044.
For `O=C(CNS(=O)(=O)Cc1ccccc1)c1ccccc1` [Example 28, N-(2-oxo-2-phenylethyl)-1-phenylmethanesulfonamide], the fold induction at 1 µM (KAI1 promoter; [2]) was 1.02 and the “In vivo relative invation” value [1] was 1.057.
For `O=C(CNC(=O)c1cc(C(F)(F)F)cc(C(F)(F)F)c1)c1ccccc1` [Example 29, N-(2-oxo-2-phenylethyl)-3,5-bis(trifluoromethyl)benzamide], the fold induction at 1 µM (KAI1 promoter; [2]) was 0.9 and the “In vivo relative invation” value [1] was 1.026.
With `O=C(CNC(=O)c1ccccc1C(F)(F)F)c1ccccc1` [Example 30, N-(2-oxo-2-phenylethyl)-2-(trifluoromethyl)benzamide] the fold induction at 1 µM (KAI1 promoter; [2]) was 1.41 and the “In vivo relative invation” value [1] was 0.7631.
With `O=C(CNC(=O)c1cccc(C(F)(F)F)c1)c1ccccc1` [Example 31, N-(2-oxo-2-phenylethyl)-3-(trifluoromethyl)benzamide] the fold induction at 1 µM (KAI1 promoter; [2]) was 1.18 and the “In vivo relative invation” value [1] was 0.8211.
With `O=C(CNC(=O)c1ccc(C(F)(F)F)cc1)c1ccccc1` [Example 32, N-(2-oxo-2-phenylethyl)-4-(trifluoromethyl)benzamide] the fold induction at 1 µM (KAI1 promoter; [2]) was 1.02 and the “In vivo relative invation” value [1] was 1.383.
`O=C(CNC(=O)c1ccc(F)cc1Cl)c1ccccc1` [Example 33, 2-chloro-4-fluoro-N-(2-oxo-2-phenylethyl)benzamide] was tested, and the fold induction at 1 µM (KAI1 promoter; [2]) was 1.78 and the “In vivo relative invation” value [1] was 0.7513.
With `O=C(CNC(=O)c1cccc([N+](=O)[O-])c1)c1ccccc1` [Example 34, 3-nitro-N-(2-oxo-2-phenylethyl)benzamide] the fold induction at 1 µM (KAI1 promoter; [2]) was 1.34 and the “In vivo relative invation” value [1] was 1.103.
In the case of `O=C(CNC(=O)c1ccc(F)c(F)c1)c1ccccc1` [Example 35, 3,4-difluoro-N-(2-oxo-2-phenylethyl)benzamide], the fold induction at 1 µM (KAI1 promoter; [2]) is reported as 1.28 and the “In vivo relative invation” value [1] is reported as 0.8811.
In the case of `O=C(CNC(=O)c1cc(Cl)cc(Cl)c1)c1ccccc1` [Example 36, 3,5-dichloro-N-(2-oxo-2-phenylethyl)benzamide], the fold induction at 1 µM (KAI1 promoter; [2]) is reported as 1.16 and the “In vivo relative invation” value [1] is reported as 1.056.
In the case of `O=C(CNC(=O)c1cccc(Cl)c1Cl)c1ccccc1` [Example 37, 2,3-dichloro-N-(2-oxo-2-phenylethyl)benzamide], the fold induction at 1 µM (KAI1 promoter; [2]) is reported as 1.17 and the “In vivo relative invation” value [1] is reported as 0.9648.
In the case of `O=C(CNC(=O)c1ccc(OC(F)(F)F)cc1)c1ccccc1` [Example 38, N-(2-oxo-2-phenylethyl)-4-(trifluoromethoxy)benzamide], the fold induction at 1 µM (KAI1 promoter; [2]) is reported as 1.57 and the “In vivo relative invation” value [1] is reported as 1.119.
With `O=C(CNC(=O)c1cccc(OC(F)(F)F)c1)c1ccccc1` [Example 39, N-(2-oxo-2-phenylethyl)-3-(trifluoromethoxy)benzamide] the fold induction at 1 µM (KAI1 promoter; [2]) was 1.21 and the “In vivo relative invation” value [1] was 0.5984.
With `Cc1cc(C)cc(C(=O)NCC(=O)c2ccccc2)c1` [Example 40, 3,5=dimethyl-N-(2-oxo-2-phenylethyl)benzamide] the fold induction at 1 µM (KAI1 promoter; [2]) was 1 and the “In vivo relative invation” value [1] was 1.173.
With `O=C(CNC(=O)c1ccccc1OC(F)(F)F)c1ccccc1` [Example 41, N-(2-oxo-2-phenylethyl)-2-(trifluoromethoxy)benzamide] the fold induction at 1 µM (KAI1 promoter; [2]) was 1.19 and the “In vivo relative invation” value [1] was 0.7565.
In the case of `Cc1[nH]c(/C=C2\C(=O)Nc3ccc(S(=O)(=O)Cc4c(Cl)cccc4Cl)cc32)c(C)c1C(=O)N1CCC[C@@H]1CN1CCCC1` [PHA, PHA-665752, reference compound], the fold induction at 1 µM (KAI1 promoter; [2]) is reported as 1.43.
In the case of KITENIN, the “In vivo relative invation” value [1] is reported as 1.419 and 1.156 and 1.58 and 1.288 and 1.205 and 1.369.
